Laboratory results reported in patent US9815796B2 (Merck Sharp & Dohme Corp., priority 2013, dated 2017).
Read-outs that look alike come from different tables or passages of the source.

How the values were obtained:
Rhesus PDE2A3 = Rhesus PDE2A3 (Macaca mulatta, UniProt B3VTJ2); assay: PDE2 fluorescence polarization (IMAP FP) inhibition assay, rhesus enzyme; assay type: biochemical, rhesus macaque
Outline: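 IMAP FP (mP from parallel and perpendicular fluorescence against substrate-only control) was read ≥1 h after adding binding reagent. The preceding 60 min room-temperature reaction contained FAM-cAMP (50 nM) and cGMP (1 uM) in pH 7.2 Tris buffer with MgCl2 and DTT. Enzyme was supernatant of sonicated AD293 cells expressing rhesus PDE2A3; compounds were 3-fold titrated, DMSO 1% final.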

human PDE2A1 = human PDE2A1 (Homo sapiens (Human), UniProt O00408); assay: IMAP FP PDE selectivity panel, human PDE2A1; assay type: biochemical
Chain of human PDE2A1 (O00408 other isoform, or with tags, fused parts or gaps): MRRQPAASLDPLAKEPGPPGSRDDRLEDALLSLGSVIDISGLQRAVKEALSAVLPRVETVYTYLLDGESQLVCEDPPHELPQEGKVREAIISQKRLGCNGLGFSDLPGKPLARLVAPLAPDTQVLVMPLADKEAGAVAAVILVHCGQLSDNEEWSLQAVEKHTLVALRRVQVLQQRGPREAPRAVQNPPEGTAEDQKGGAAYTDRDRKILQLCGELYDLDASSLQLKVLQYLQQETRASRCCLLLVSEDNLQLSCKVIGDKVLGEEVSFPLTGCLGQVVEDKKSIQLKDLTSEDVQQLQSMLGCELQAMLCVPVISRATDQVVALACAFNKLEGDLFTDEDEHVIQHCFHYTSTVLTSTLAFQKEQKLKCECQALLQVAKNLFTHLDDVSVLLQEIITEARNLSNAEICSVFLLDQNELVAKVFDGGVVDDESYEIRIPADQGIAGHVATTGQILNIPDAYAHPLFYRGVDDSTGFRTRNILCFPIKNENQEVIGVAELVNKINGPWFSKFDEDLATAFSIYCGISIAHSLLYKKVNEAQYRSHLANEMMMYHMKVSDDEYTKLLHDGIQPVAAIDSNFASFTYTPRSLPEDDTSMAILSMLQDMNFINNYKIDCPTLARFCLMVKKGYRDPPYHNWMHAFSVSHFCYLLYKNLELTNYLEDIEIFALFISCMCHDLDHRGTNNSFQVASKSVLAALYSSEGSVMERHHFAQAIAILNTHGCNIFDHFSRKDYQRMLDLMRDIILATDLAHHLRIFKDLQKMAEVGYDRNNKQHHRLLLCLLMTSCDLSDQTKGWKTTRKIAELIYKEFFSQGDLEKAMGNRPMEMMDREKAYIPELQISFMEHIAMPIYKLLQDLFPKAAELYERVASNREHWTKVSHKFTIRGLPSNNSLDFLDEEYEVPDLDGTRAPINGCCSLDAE
Outline: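 IMAP FP format: substrate 50 nM FAM-cAMP plus 1000 nM cGMP, enzyme (insect-cell GST-tagged human PDE2A1) at ~20% conversion, 60 min reaction at room temperature. Apparent inhibition constants calculated from parallel/perpendicular fluorescence with KM 10,000 nM.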

[1] = Rhesus PDE2, Lab B, read-out: Rhesus PDE2 Ki (nM) - Lab B
[2] = Human PDE2, Lab B, read-out: Human PDE2 Ki (nM) - Lab B
[3] = Rhesus PDE2, Lab A, read-out: Rhesus PDE2 Ki (nM) - Lab A
[4] = Human PDE2, Lab A, read-out: Human PDE2 Ki (nM) - Lab A

Chain of Rhesus PDE2A3 (B3VTJ2 1-941): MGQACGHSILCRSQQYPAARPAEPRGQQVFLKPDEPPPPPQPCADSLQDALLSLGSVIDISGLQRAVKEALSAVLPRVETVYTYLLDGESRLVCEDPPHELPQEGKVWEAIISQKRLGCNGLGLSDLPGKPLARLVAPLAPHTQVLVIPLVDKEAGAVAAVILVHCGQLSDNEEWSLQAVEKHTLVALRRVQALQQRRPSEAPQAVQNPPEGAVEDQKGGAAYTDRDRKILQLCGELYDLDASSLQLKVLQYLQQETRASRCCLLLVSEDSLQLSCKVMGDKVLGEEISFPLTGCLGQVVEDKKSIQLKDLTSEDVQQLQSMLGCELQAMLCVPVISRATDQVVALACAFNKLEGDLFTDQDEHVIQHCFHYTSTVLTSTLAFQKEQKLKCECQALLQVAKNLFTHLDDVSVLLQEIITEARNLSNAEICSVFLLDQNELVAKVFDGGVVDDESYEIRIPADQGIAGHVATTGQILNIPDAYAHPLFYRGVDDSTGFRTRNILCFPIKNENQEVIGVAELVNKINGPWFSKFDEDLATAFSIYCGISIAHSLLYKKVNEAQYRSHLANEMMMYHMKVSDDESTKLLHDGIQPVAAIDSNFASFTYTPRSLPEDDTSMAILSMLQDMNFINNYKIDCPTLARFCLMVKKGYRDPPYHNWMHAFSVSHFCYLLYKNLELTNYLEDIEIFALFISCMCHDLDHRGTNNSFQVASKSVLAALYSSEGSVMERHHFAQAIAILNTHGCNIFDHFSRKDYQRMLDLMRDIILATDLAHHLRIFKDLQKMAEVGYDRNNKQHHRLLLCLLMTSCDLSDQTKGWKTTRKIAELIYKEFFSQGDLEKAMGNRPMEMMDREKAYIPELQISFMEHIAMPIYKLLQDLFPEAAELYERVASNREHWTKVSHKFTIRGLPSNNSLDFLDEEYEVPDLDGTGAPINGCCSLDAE

Row | Structure (SMILES) | Ki (Rhesus PDE2A3; [1]) | Ki (human PDE2A1; [2]) | Ki (Rhesus PDE2A3; [3]) | Ki (human PDE2A1; [4])
1 | C[C@@H](NC(=O)c1cc(=O)[nH]c(-c2ncccn2)n1)c1ccc(OC(F)(F)F)cc1F [Example 101, N-{(1R)-1-[2-fluoro-4-(trifluoromethoxy)phenyl]ethyl}-6-oxo-1,6-dihydro-2,2′-bipyrimidine-4-carboxamide] | 28 nM | 33 nM | 28 nM | ~8.9 nM
2 | CC(NC(=O)c1cc(=O)[nH]c(C2CC2)n1)c1ccc(C(F)(F)F)cc1Cl (centres unmarked) [Example 233, N-{1-[2-chloro-4-(trifluoromethyl)phenyl]ethyl}-2-cydopropyl-6-oxo-1,6-dihydropyrimidine-4-carboxamide] |  |  | 124 nM | 78 nM
3 | Cc1nc(C(=O)N[C@@H](c2ccc(S(F)(F)(F)(F)F)cc2)C2CC2)cc(=O)[nH]1 [Example 405, N-{(R)-cyclopropyl[4-(pentafluoro-λ^6-sulfanyl)phenyl]methyl}-2-methyl-6-oxo-1,6-dihydropyrimidine-4-carboxamide] | 17 nM | 15 nM |  | 
4 | O=C(NC1(c2ccc(SC(F)(F)F)cc2)CC1)c1cc(=O)[nH]c(-c2ccccc2)n1 [Example 159, 6-oxo-2-phenyl-N-(1-{4-[(trifluoromethyl)sulfanyl]phenyl}cyclopropyl)-1,6-dihydropyrimidine-4-carboxamide] |  |  | 7.6 nM | 4.9 nM
5 | C[C@@H](NC(=O)c1cc(=O)[nH]c(C2CC2)n1)c1ccc(OC(F)(F)F)cc1 [Example 10, 2-cyclopropyl-6-oxo-N-{(1R)-1-[4-(trifluoromethoxy)phenyl]ethyl}-1,6-dihydropyrimidine-4-carboxamide] |  |  | 9.9 nM | 6 nM
6 | C[C@@H](NC(=O)c1cc(=O)[nH]c(-c2ccccc2)n1)c1ccc(C(F)(F)F)c(F)c1F [Example 408, N-{(1R)-1-[2,3-difluoro-4-(trifluoromethyl)phenyl]ethyl}-6-oxo-2-phenyl-1,6-dihydropyrimidine-4-carboxamide] | 17 nM | 11 nM |  | 
7 | Cc1nc(C(=O)N[C@@H](c2ccc(C(F)(F)F)cc2)C(C)C)cc(=O)[nH]1 [Example 316, 2-methyl-N-{(1R)-2-methyl-1-[4-(trifluoromethyl)phenyl]propyl}-6-oxo-1,6-dihydropyrimidine-4-carboxamide] |  |  | 13 nM | 7.1 nM
8 | COc1ccc(C(C)(C)c2nc(C(=O)N[C@@H](c3ccc(SC(F)(F)F)c(F)c3)C3CC3)cc(=O)[nH]2)cc1 [Example 497, N-[(R)-cyclopropyl{3-fluoro-4-[(trifluoromethyl)sulfanyl]phenyl}methyl]-2-[1-(4-methoxyphenyl)-1-methylethyl]-6-oxo-1,6-dihydropyrimidine-4-carboxamide] | 80 nM | 60 nM |  | 
9 | O=C(N[C@@H](c1ccc(OC(F)(F)F)c(F)c1)C1CC1)c1cc(=O)[nH]c(-c2ccccc2)n1 [Example 176] |  |  | 4.8 nM | 3.9 nM
10 | CC(C)[C@@H](NC(=O)c1cc(=O)[nH]c(C2CC2)n1)c1ccc(SC(F)(F)F)c(F)c1 [Example 244, 2-cyclopropyl-N-[(1R)-1-{3-fluoro-4-[(trifluoromethyl)sulfanyl]phenyl}-2-methylpropyl]-6-oxo-1,6-dihydropyrimidine-4-carboxamide] | 2.4 nM | 3 nM | 0.99 nM | 
11 | CC1(C(NC(=O)c2cc(=O)[nH]c(-c3ccccc3)n2)c2ccc(SC(F)(F)F)c(F)c2)CC1 (single isomer, unassigned) [Example 707, (R)- or (S)-N-((3-fluoro-4-((trifluoromethyl)thio)phenyl)(1-methylcyclopropyl)methyl)-6-oxo-2-phenyl-1,6-dihydropyrimidine-4-carboxamide] | 8.3 nM | 7.7 nM |  | 

Results, then the compound that gave them:

Row | Ki (Rhesus PDE2A3; [1]) | Ki (human PDE2A1; [2]) | Ki (Rhesus PDE2A3; [3]) | Ki (human PDE2A1; [4]) | Structure (SMILES)
12 | 8.1 nM | 7.4 nM |  |  | CC1(C(NC(=O)c2cc(=O)[nH]c(-c3ncccn3)n2)c2ccc(SC(F)(F)F)c(F)c2)CC1 (single isomer, unassigned) [Example 709, (R)- or (S)-N-((3-fluoro-4-((trifluoromethyl)thio)phenyl)(1-methylcyclopropyl)methyl)-6-oxo-1,6-dihydro-[2,2′-bipyrimidine]-4-carboxamide]
13 | 4.7 nM | 4.9 nM | 3.7 nM |  | CC(C)(C)[C@@H](NC(=O)c1cc(=O)[nH]c(-c2ncccn2)n1)c1ccc(C(F)(F)F)cc1 [Example 255, N-{(1R)-2,2-dimethyl-1-[4-(trifluoromethyl)phenyl]propyl}-6-oxo-1,6-dihydro-2,2′-bipyrimidine-4-carboxamide]
14 | 9.5 nM | 6.5 nM |  |  | O=C(N[C@@H](c1ccc(S(F)(F)(F)(F)F)cc1)C1CC1)c1cc(=O)[nH]c(-c2ccccc2)n1 [Example 404, N-{(R)-cyclopropyl[4-(pentafluoro-λ^6-sulfanyl)phenyl]methyl}-6-oxo-2-phenyl-1,6-dihydropyrimidine-4-carboxamide]
15 | 173 nM | 129 nM | 62 nM |  | COC(=O)c1ccc([C@@H](C)NC(=O)c2cc(=O)[nH]c(-c3ccccc3)n2)cc1 [Example 359, methyl 4-[(1R)-1-{[(6-oxo-2-phenyl-1,6-dihydropyrimidin-4-yl)carbonyl]amino}ethyl]benzoate]
16 | 0.62 nM | 0.62 nM |  |  | COc1ccc(Cc2nc(C(=O)N[C@@H](c3ccc(SC(F)(F)F)cc3)C(C)(C)C)cc(=O)[nH]2)cc1 [Example 465, N-[(1R)-2,2-dimethyl-1-{4-[(trifluoromethyl)sulfanyl]phenyl}propyl]-2-(4-methoxybenzyl)-6-oxo-1,6-dihydropyrimidine-4-carboxamide]
17 | 0.77 nM | 0.8 nM |  |  | COc1ccc(Cc2nc(C(=O)N[C@@H](c3ccc(C(F)(F)F)c(F)c3)C(C)(C)C)cc(=O)[nH]2)cc1F [Example 508, 2-(3-fluoro-4-methoxybenzyl)-N-{(1R)-1-[3-fluoro-4-(trifluoromethyl)phenyl]-2,2-dimethylpropyl}-6-oxo-1,6-dihydropyrimidine-4-carboxamide]
18 | 1.3 nM | 1.7 nM |  |  | COc1ccc(Cc2nc(C(=O)N[C@@H](c3ccc(OC(F)(F)F)cc3)C(C)C)cc(=O)[nH]2)cc1F [Example 517, 2-(3-fluoro-4-methoxybenzyl)-N-{(1R)-2-methyl-1-[4-(trifluoromethoxy)phenyl]propyl}-6-oxo-1,6-dihydropyrimidine-4-carboxamide]
19 |  |  | 472 nM | 314 nM | Cc1nc(C(=O)NC(C)c2ccc(C(F)(F)F)cc2Cl)cc(=O)[nH]1 (centres unmarked) [Example 18, N-{1-[2-chloro-4-(trifluoromethyl)phenyl]ethyl}-2-methyl-6-oxo-1,6-dihydropyrimidine-4-carboxamide]
20 |  |  | 1320 nM | 1220 nM | C[C@@H](NC(=O)c1nc(C2CCC2)[nH]c(=O)c1C1CCC1)c1ccc(C(F)(F)F)cc1 [Example 335, (R)-2,5-dicyclobutyl-6-oxo-N-(1-(4-(trifluoromethyl)phenyl)ethyl)-1,6-dihydropyrimidine-4-carboxamide]
21 |  |  | 61 nM | 36 nM | CCC(NC(=O)c1cc(=O)[nH]c(-c2ccccc2)n1)c1ccc(C(C)(C)C)cc1 (centres unmarked) [Example 163, N-[1-(4-tert-butylphenyl)propyl]-6-oxo-2-phenyl-1,6-dihydropyrimidine-4-carboxamide]
22 |  | 96 nM | 158 nM | 118 nM | Cc1nc(C(=O)NC2(c3ccc(OC(F)(F)F)cc3)CCC2)cc(=O)[nH]1 [Example 269]
